In brackets after ≈: the same amount, converted by molar mass. Values belong to the molecule of their own block, whether it stands above or below them.
What was measured:
Test in all cases: ≥ marks a high value that may be exact or a test limit, other limits are often not marked, values filed in µg/mL are converted to µM
[1] = system: Erwinia amylovora PMV 6076
[2] = system: Pseudomonas syringae pv. syringae EPS 94
[3] = system: Xanthomonas campestris pv. Vesicatoria 2133-2
[4] = system: Escherichia coli ATCC 25922
[5] = system: Pseudomonas aeruginosa ATCC 10419
[6] = system: Pseudomonas aeruginosa ATCC 21625
[7] = system: Pseudomonas aeruginosa ATCC 21630
[8] = system: Pseudomonas aeruginosa ATCC 27853
[9] = system: Pseudomonas aeruginosa LCCE
[10] = system: Pseudomonas aeruginosa LCCI
[11] = system: Pseudomonas aeruginosa LCGE
[12] = system: Pseudomonas aeruginosa LC
[13] = system: Salmonella enterica subsp. enterica serovar Typhimurium C77-31
[14] = system: Staphylococcus aureus ATCC 29213
[15] = system: Staphylococcus epidermidis ATCC 12228
[16] = system: Pseudomonas aeruginosa PAO1
[17] = system: Staphylococcus aureus ATCC 43300
[18] = system: Staphylococcus aureus LAC
Escherichia coli 44102 = system: Escherichia coli 44102
[19] = system: Staphylococcus aureus 22401
Edwardsiella tarda TX1 = system: Edwardsiella tarda TX1
Micrococcus luteus = system: Micrococcus luteus
Staphylococcus aureus = system: Staphylococcus aureus
Vibrio anguillarum C312 = system: Vibrio anguillarum C312

- MIC [1]: 14.1 µM (≈ 24.3 µg/mL)
- MIC [2]: 14.1 µM (≈ 24.3 µg/mL)
- MIC [3]: 3.54 µM (≈ 6.07 µg/mL)
SMILES: CC[C@H](C)[C@H](NC(=O)[C@H](CCCCN)NC(=O)[C@H](CCCCN)NC(=O)[C@H](Cc1ccccc1)NC(=O)[C@H](CC(C)C)NC(=O)[C@H](CCCCN)NC(=O)[C@@H](N)CCCCN)C(=O)N[C@@H](CC(C)C)C(=O)N[C@@H](CCCCN)C(=O)N[C@@H](Cc1ccc(O)cc1)C(=O)N[C@@H](CC(C)C)C(=O)N[C@@H](C)C(=O)NCC(=O)N1CCC[C@H]1C(=O)N[C@@H](C)C(=O)O [KKLFKKILKYLAGPA]

- MIC [4]: 128 µM (≈ 281 µg/mL)
- MIC [5]: ≥ 256 µM
- MIC [6]: ≥ 256 µM
- MIC [7]: ≥ 256 µM
- MIC [8]: 256 µM (≈ 562 µg/mL)
- MIC [9]: ≥ 256 µM
- MIC [10]: ≥ 256 µM
- MIC [11]: ≥ 256 µM
- MIC [12]: ≥ 64 µM
- MIC [13]: ≥ 256 µM
- MIC [14]: 256 µM (≈ 562 µg/mL)
- MIC [15]: 32 µM (≈ 70.2 µg/mL)
SMILES: CC[C@H](C)[C@H](NC(=O)[C@H](CCCCN)NC(=O)[C@H](CCCCN)NC(=O)[C@H](CC(C)C)NC(=O)[C@H](CCCN=C(N)N)NC(=O)[C@H](CCCCN)NC(=O)[C@H](CCCN=C(N)N)NC(=O)[C@@H](NC(=O)[C@H](CCCCN)NC(=O)[C@H](CCCCN)NC(=O)[C@H](CCCN=C(N)N)NC(=O)[C@H](CC(C)C)NC(=O)[C@H](CCCN=C(N)N)NC(=O)[C@H](CCCN=C(N)N)NC(=O)[C@H](Cc1ccccc1)NC(=O)[C@@H](N)CCCN=C(N)N)[C@@H](C)CC)C(N)=O [RFRRLRKKIRKRLKKI]

- MIC [4]: 46.1 µM (≈ 64 µg/mL)
- MIC [16]: 15.6 µM (≈ 21.7 µg/mL)
- MIC [17]: 31.3 µM (≈ 43.4 µg/mL)
- MIC [18]: 23.1 µM (≈ 32 µg/mL)
SMILES: NC(N)=NCCC[C@H](NC(=O)[C@H](CCCN=C(N)N)NC(=O)[C@H](CCCN=C(N)N)NC(=O)[C@@H](N)CCCN=C(N)N)C(=O)N[C@@H](Cc1c[nH]c2ccccc12)C(=O)N[C@@H](Cc1c[nH]c2ccccc12)C(=O)N[C@@H](Cc1c[nH]c2ccccc12)C(=O)N[C@@H](Cc1c[nH]c2ccccc12)C(=O)O [RRRRWWWW]

- MIC (Escherichia coli 44102): 25 µM (≈ 53.7 µg/mL)
- MIC [19]: ≥ 50 µM
SMILES: CC[C@H](C)[C@H](NC(=O)[C@H](CCC(=O)O)NC(=O)[C@H](C)NC(=O)[C@H](Cc1ccccc1)NC(=O)[C@@H](N)CC(N)=O)C(=O)N[C@@H](Cc1ccccc1)C(=O)N[C@@H](C)C(=O)N[C@@H](C)C(=O)N[C@H](C(=O)N[C@@H](CC(N)=O)C(=O)N[C@@H](CCCCN)C(=O)N[C@@H](CC(C)C)C(=O)N[C@H](C(=O)N[C@@H](CCCCN)C(=O)N[C@@H](CCC(N)=O)C(=O)NCC(=O)N[C@H](C(=O)N[C@H](C(=O)N[C@@H](CCCCN)C(=O)NCC(=O)O)C(C)C)C(C)C)[C@@H](C)CC)C(C)C [NFAEIFAAVNKLIKQGVVKG]

- MIC (Edwardsiella tarda TX1): 2.83 µM (≈ 8.3 µg/mL)
- MIC (Micrococcus luteus): 1.41 µM (≈ 4.15 µg/mL)
- MIC (Staphylococcus aureus): 2.83 µM (≈ 8.3 µg/mL)
- MIC (Vibrio anguillarum C312): 5.66 µM (≈ 16.6 µg/mL)
SMILES: CC[C@H](C)[C@H](NC(=O)[C@H](Cc1cnc[nH]1)NC(=O)[C@H](CO)NC(=O)[C@@H](N)CCC(N)=O)C(=O)N[C@@H](CO)C(=O)N[C@@H](CC(C)C)C(=O)N[C@H]1CSSC[C@@H](C(=O)N[C@@H](CCCCN)C(=O)N[C@@H](Cc2ccccc2)C(=O)O)NC(=O)[C@@H]2CSSC[C@H](NC(=O)[C@H](Cc3c[nH]c4ccccc34)NC(=O)[C@H](CCCN=C(N)N)NC1=O)C(=O)N[C@H]1CSSC[C@H](NC(=O)CNC(=O)[C@H](CCCCN)NC(=O)[C@H](CC(N)=O)NC(=O)[C@H](C)NC(=O)[C@H](CCCCN)NC(=O)[C@@H]3CSSC[C@H](NC(=O)[C@H](CC(N)=O)NC1=O)C(=O)N3)C(=O)NCC(=O)N[C@@H](Cc1ccccc1)C(=O)N2 [QSHISLCRWCCNCCKANKGCGFCCKF]
